According to ChEMBL document CHEMBL1130960, “QSAR study of the peptidic fibrinogen inhibitors FK633, FR158999 and related derivatives, using a novel and useful hydrophobic descriptor (logPmw)” (Bioorg Med Chem Lett, 1998):

Assay: Inhibition of binding to fibrinogen receptor

Row | Compound | Log IC50
1 | N=C(N)c1ccc(OCCCC(=O)NC(CC(=O)O)C(=O)NC(Cc2ccc(O)cc2)C(=O)O)cc1 (stereo unspecified) | -6.8
2 | CC(C)[C@H](NC(=O)[C@H](CC(=O)O)NC(=O)CCCOc1ccc(C(=N)N)cc1)C(N)=O | -6.2
3 | CC(C)(C)CC(NC(=O)C(CC(=O)O)NC(=O)CCCOc1ccc(C(=N)N)cc1)C(=O)O (stereo unspecified) | -6.64
4 | COc1ccc(CC(NC(=O)C(CC(=O)O)NC(=O)CCCCOc2ccc(C(=N)N)cc2)C(=O)O)cc1 (stereo unspecified) | -6.57
5 | CC(C)[C@H](NC(=O)[C@H](CC(=O)O)NC(=O)CCCOc1ccc(C(=N)N)cc1)C(=O)N1CCS(=O)(=O)CC1 | -7.5
6 | CC(C)C(C)NC(=O)C(CC(=O)O)NC(=O)CCCOc1ccc(C(=N)N)cc1 (stereo unspecified) | -5.9
7 | CC(C)C(NC(=O)C(CC(=O)O)NC(=O)CCCOc1ccc(C(=N)N)cc1)C(=O)O (stereo unspecified) | -6.96
8 | CC(C)C(NC(=O)C(CC(=O)O)NC(=O)CCCCOc1ccc(C(=N)N)cc1)C(=O)O (stereo unspecified) | -6.64
9 | COc1ccc(CC(NC(=O)C(CC(=O)O)NC(=O)CCCOc2ccc(C(=N)N)cc2)C(=O)O)cc1 (stereo unspecified) | -6.89
10 | CC(C)[C@H](NC(=O)[C@H](CC(=O)O)NC(=O)CCCOc1ccc(C(=N)N)cc1)C(=O)N1CCOCC1 | -7.1
11 | CC(C)[C@H](NC(=O)[C@H](CC(=O)O)NC(=O)CCCOc1ccc(C(=N)N)cc1)C(=O)NC1CCCCC1 | -6.7
12 | CCCCC(NC(=O)C(CC(=O)O)NC(=O)CCCOc1ccc(C(=N)N)cc1)C(=O)O (stereo unspecified) | -7.12
13 | N=C(N)c1ccc(OCCCCC(=O)NC(CC(=O)O)C(=O)NC(CO)C(=O)O)cc1 (stereo unspecified) | -4.92

Continued, values first:

Row | Log IC50 | Compound
14 | -6.4 | CC(C)c1ccc(OCCNC(=O)C(CC(=O)O)NC(=O)CCCOc2ccc(C(=N)N)cc2)cc1 (stereo unspecified)
15 | -6.87 | CC(C)CC(NC(=O)C(CC(=O)O)NC(=O)CCCOc1ccc(C(=N)N)cc1)C(=O)O (stereo unspecified)
16 | -6.85 | CC[C@H](C)[C@H](NC(=O)[C@H](CC(=O)O)NC(=O)CCCOc1ccc(C(=N)N)cc1)C(=O)O
17 | -6.3 | Cc1ccc(OCCNC(=O)C(CC(=O)O)NC(=O)CCCOc2ccc(C(=N)N)cc2)cc1C (stereo unspecified)
18 | -6.19 | N=C(N)c1ccc(OCCCCC(=O)NC(CC(=O)O)C(=O)NC(Cc2ccc(O)cc2)C(=O)O)cc1 (stereo unspecified)
19 | -5.35 | COC(=O)C(Cc1ccc(O)cc1)NC(=O)C(CC(=O)O)NC(=O)CCCCOc1ccc(C(=N)N)cc1 (stereo unspecified)
20 | -6.6 | CCN(CC)C(=O)[C@@H](NC(=O)[C@H](CC(=O)O)NC(=O)CCCOc1ccc(C(=N)N)cc1)C(C)C
21 | -6.5 | CCc1ccc(OCCNC(=O)C(CC(=O)O)NC(=O)CCCOc2ccc(C(=N)N)cc2)cc1 (stereo unspecified)
